Data published in patent US9181214B2 (RHIZEN PHARMACEUTICALS SA, priority 2011, dated 2015).

Molecular target: T1, human GPR119 (Homo sapiens, UniProt Q8TDV5)
T1 construct: expressed in transfected cells; host or cells: HEK293 (transient transfection, Lipofectamine 2000)
T1 sequence (Q8TDV5 1-335): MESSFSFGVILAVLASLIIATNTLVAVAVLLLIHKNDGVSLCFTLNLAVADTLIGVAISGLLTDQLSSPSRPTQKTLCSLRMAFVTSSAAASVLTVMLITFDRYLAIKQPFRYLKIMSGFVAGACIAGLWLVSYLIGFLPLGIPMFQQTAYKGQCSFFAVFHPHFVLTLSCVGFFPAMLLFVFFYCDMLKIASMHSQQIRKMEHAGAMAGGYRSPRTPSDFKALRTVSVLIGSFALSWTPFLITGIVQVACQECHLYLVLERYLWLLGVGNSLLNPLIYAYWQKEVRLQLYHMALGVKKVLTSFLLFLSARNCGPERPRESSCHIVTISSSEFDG
Test: In vitro cyclic AMP assay (Cisbio HTRF) in HEK293 cells transfected with human GPR119
Assay type: cell-based
Conditions: cAMP, Table I; for activation at 10 µM: 1 h, % Induction @ 10 μM; for EC50: Emax varies between 65 to 80%
Method: A. In Vitro Cyclic AMP Assay:
cAMP measurements were done using a Cisbio dynamic 2 HTRF kit (Cisbio, Bedford, Mass.) according to the manufacturer's protocol. Briefly, HEK293 cells (0.2×10^6/well) were plated in a 24 well plate and incubated overnight at 37° C. Cells were transfected with either empty vector DNA or human GPR119 expression plasmid DNA using Lipofectamine 2000 (Invitrogen). After 24 h, transfected cells were harvested, counted and plated at 1000 cells/5 ul in a black 384 welled small volume plate. Cells were treated with desired concentrations of compounds and incubated for 60 min at room temperature. Lysis buffer containing cAMP-d2 and cryptate conjugate were added and incubated for 1 h. HRTF ratio was measured on a microplate reader (BMG Labtech., Germany) at an excitation wavelength of 337 nm and emission wavelengths of 665 and 620 nm with an integration time of 400 μsec. Data were analyzed using Graphpad Prism (Graphpad software; San Diego Calif.) for EC50 determination.
The results are as given in Table I as % Induction@ 10 μM, Table II as % Induction@ 10 μM and EC 50 in nM

| SMILES | activation at 10 µM [%] | EC50 [nM] |
| --- | --- | --- |
| CCc1cnc(N2CCC(c3nc4cc(-c5ccc(S(C)(=O)=O)cc5F)ccc4[nH]3)CC2)nc1 [EXAMPLE-1, 2-[1-(5-Ethylpyrimidin-2-yl)piperidin-4-yl]-5-[2-fluoro-4-(methylsulfonyl)phenyl]-1H-benzo[d]imidazole] | 55.4 |  |
| CC(C)(C)OC(=O)N1CCC(c2nc3cc(-c4ccc(S(C)(=O)=O)cc4F)ccc3[nH]2)CC1 [EXAMPLE-2, Tert-butyl 4-{5-[2-fluoro-4-(methylsulfonyl)phenyl]-1H-benzo[d]imidazol-2-yl}piperidine-1-carboxylate] | 35.8 |  |
| CCc1cnc(N2CCC(c3nc4cc(-c5ccc(S(C)(=O)=O)cc5F)ccc4o3)CC2)nc1 [EXAMPLE-3, 2-[1-(5-ethylpyrimidin-2-yl)piperidin-4-yl]-5-[2-fluoro-4-(methylsulfonyl)phenyl]benzo[d]oxazole] | 35.4 |  |
| CC(C)(C)OC(=O)N1CCC(c2nc3cc(-c4ccc(S(C)(=O)=O)cc4F)ccc3o2)CC1 [EXAMPLE-4, tert-butyl 4-{5-[2-fluoro-4-(methylsulfonyl)phenyl]benzo[d]oxazol-2-yl}piperidine-1-carboxylate] | 74.2 | 50 to 100 |
| Cn1c(C2CCN(C(=O)OC(C)(C)C)CC2)nc2cc(-c3ccc(S(C)(=O)=O)cc3F)ccc21 [EXAMPLE-5, Tert-butyl 4-{5-[2-fluoro-4-(methylsulfonyl)phenyl]-1-methyl-1H-benzo[d]imidazol-2-yl}piperidine-1-carboxylate] | 41 |  |

Second part, the compound after the results:

| activation at 10 µM [%] | EC50 [nM] | SMILES |
| --- | --- | --- |
| 73.2 | 25 to 50 | CC(C)(C)OC(=O)N1CCC(c2nc3ccc(-c4ccc(S(C)(=O)=O)cc4F)cc3o2)CC1 [EXAMPLE-6, Tert-butyl 4-{6-[2-fluoro-4-(methylsulfonyl)phenyl]benzo[d]oxazol-2-yl}piperidine-1-carboxylate] |
| 62.6 | 50 to 100 | CC(C)OC(=O)N1CCC(c2nc3cc(-c4ccc(S(C)(=O)=O)cc4F)ccc3o2)CC1 [EXAMPLE-7, Isopropyl 4-{5-[2-fluoro-4-(methylsulfonyl)phenyl]benzo[d]oxazol-2-yl}piperidine-1-carboxylate] |
| 66.7 | 25 to 50 | CC(C)(C)OC(=O)N1CCC(c2nc3cc(-c4ccc(S(C)(=O)=O)cc4F)cc(F)c3o2)CC1 [EXAMPLE-8, Tert-butyl 4-{7-fluoro-5-[2-fluoro-4-(methylsulfonyl)phenyl]benzo[d]oxazol-2-yl}piperidine-1-carboxylate] |
| 46.8 |  | CC(C)(C)OC(=O)N1CCC(c2nc3cc(-c4ccc(C#N)cc4)ccc3o2)CC1 [EXAMPLE-9, Tert-butyl 4-[5-(4-cyanophenyl)benzo[d]oxazol-2-yl]piperidine-1-carboxylate] |
| 59.2 | 500 to 1000 | CC(C)(C)OC(=O)N1CCC(c2nc3cc(-c4ccc(S(C)(=O)=O)c(F)c4)ccc3o2)CC1 [EXAMPLE-10, Tert-butyl 4-{5-[3-fluoro-4-(methylsulfonyl)phenyl]benzo[d]oxazol-2-yl}piperidine-1-carboxylate] |
| 70.1 |  | CC(C)(C)OC(=O)N1CCC(c2nc3cc(-c4ccc(-n5cnnn5)cc4)ccc3o2)CC1 [EXAMPLE-11, Tert-butyl 4-{5-[4-(1H-tetrazol-1-yl)phenyl]benzo[d]oxazol-2-yl}piperidine-1-carboxylate] |
| 68.2 | 100 to 500 | CC(C)(C)OC(=O)N1CCC(c2nc3cc(-c4ccc(C(F)(F)F)cc4)ccc3o2)CC1 [EXAMPLE-13, Tert-butyl 4-{5-[4-(trifluoromethyl)phenyl]benzo[d]oxazol-2-yl}piperidine-1-carboxylate] |
| 68.6 | 25 to 50 | CC(C)OC(=O)N1CCC(c2nc3cc(-c4ccc(-n5cnnn5)cc4F)ccc3o2)CC1 [EXAMPLE-14, Isopropyl 4-{5-[2-fluoro-4-(1H-tetrazol-1-yl)phenyl]benzo[d]oxazol-2-yl}piperidine-1-carboxylate] |
